The record followed here is patent publication US20230203055A1, “FUSED RING COMPOUND AND APPLICATION THEREOF IN MEDICINE” (Betta Pharmaceuticals Co., LTD, priority 2020, published 2023).

Where only a bound is given, the exact number is not on record here.

One assay concerns H358 cells. As to the kind of experiment: Detection of cell proliferation inhibition, H358 (Cell-titer Glo, 96 h). The note with it: Homo sapiens, NCI-H358, read-out: IC50 (nM) H358. The class given is cell-based. The protocol: H358 cells were plated in 96-well ultra-low adsorption plates at 2000 cells and 190 µL/well. After overnight incubation, compound solutions of gradient concentrations were prepared, and 10 µL of the DMSO solution of each concentration of the compound to be tested was added to the cells in each well. Compound final concentrations were 10000, 3333.3, 1111.1, 370.4, 123.5, 41.2, 13.7, 4.6, 1.5, 0 nM (all final concentrations of DMSO were 0.25%). Incubate at 37° C., 5% CO2 for 96 h. Add 50 µL of Cell-titer Glo working solution to each well, incubate at room temperature for 10 min after shaking and mixing, read the Luminescence luminescence value with a multi-function microplate reader, and convert the luminescence value reading into the inhibition percentage:
Percent Inhibition = (Max-Reading)/(Max-Min)* 100. • “Max” is the DMSO control, • “Min” is the cell-free control.
Curve fitting was performed with Graphpad Prism software and IC50 values were obtained. See Table 1 for IC50 data on H358 cell inhibition by example compounds.

The subject of the next assay is MIA PaCa-2 cells. As to the kind of experiment: Detection of cell proliferation inhibition, MIA PaCa-2 (Cell-titer Glo, 96 h). The format is cell-based. The note with it: Homo sapiens, read-out: IC50 (nM) MIA PaCa-2. The protocol:
MIA PaCa-2 cells were plated in a 96-well ultra-low adsorption plate at 600 cells and 160 µL/well. After overnight incubation, compound solutions with gradient concentrations were prepared, and 40 µL of DMSO solutions of the compounds to be tested were added to each well of cells respectively. Compound final concentrations were 10000, 2000, 400, 80, 16, 3.2, 0.64, 0.12, 0.025, 0 nM (all final concentrations of DMSO were 0.25%). Incubate at 37° C., 5% CO2 for 96 h. Add 50 µL of Cell-titer Glo working solution to each well, shake and mix well, incubate at room temperature for 10 min, read the Luminescence luminescence value with a multi-function microplate reader, and convert the luminescence value reading into inhibition percentage: Percent Inhibition = (Max-Reading)/(Max-Min)* 100. • “Max” is the DMSO control; • “Min” is the cell-free control.
Curve fitting was performed with Graphpad Prism software and IC50 values were obtained. See Table 1for IC50 data for the inhibition of MIA PaCa-2 cells by the compounds of the examples.

As a reminder, the IC50 is the concentration that inhibits the measured activity by half. On to `C=CC(=O)N1CCN(c2nc(=O)n(-c3c(C)ccnc3C(C)C)c3c(F)c4c(cc23)OCc2ccc3ccccc3c2-4)[C@@H](C)C1` [Example 22, (S)-10-(4-Acryloyl-2-Methylpiperazin-1-yl)-14-Fluoro-13-(2-Isopropyl-4-Methylpyridine-3-yl)-7H-Benzo[5,6] Isochromene[3,4-g]Quinazolin-12(13H)-One], for which the results for the IC50 in the assay with H358 cells and in the assay with MIA PaCa-2 cells were 3740 nM and 2500 nM, respectively.

Take `C=CC(=O)N1CCN(c2nc(=O)n(-c3c(C)ccnc3C(C)C)c3c4c(c(Cl)cc23)-c2cnccc2CO4)[C@@H](C)C1` [Example 23, (S)-1-(4-Acryloyl-2-Methylpiperazin-1-yl)-11-Chloro-4-(2-Isopropyl-4-Methylpyridine-3-yl)-4H-Pyridin[3’,4’:4,5]Pyrano[3.2-h]Quinazolin-3(6H)-One]: the IC50 worked out at 532 nM in the assay on H358 cells and 292 nM in the assay with MIA PaCa-2 cells.

For `C=CC(=O)N1CCN(c2nc(=O)n(-c3c(CC)ncnc3CC)c3c4c(c(Cl)cc23)-c2c(F)cccc2CCO4)[C@@H](C)C1` [Example 24], the IC50 in the assay with H358 cells and with MIA PaCa-2 cells was below 50 nM each time.

Take `C=CC(=O)N1CCN(c2nc(=O)n(-c3c(C)ccnc3C(C)C)c3c4c(c(F)cc23)-c2c(F)cccc2CO4)CC1CC#N` (centres unmarked) [Example 25, 2-(1-Acryloyl-4-(10,11-Difluoro-4-(2-Isopropyl-4-Methylpyridin-3-yl)-3-Oxo-3,6-Dihydro-4H-Isochromene[4,3-h] Quinazolin-1-yl) Piperazin-2-yl)Acetonitrile]: the IC50 in the assay on H358 cells is 339 nM; in the assay on MIA PaCa-2 cells, 122 nM.

As to `C=CC(=O)N1CCN(c2nc(=O)n(-c3c(C)ccnc3C(C)C)c3c(F)c4c(cc23)OCc2cccc(F)c2-4)CC1CC#N` (centres unmarked) [Example 26, 2-(1-Acryloyl-4-(1,12-Difluoro-11-(2-Isopropyl-4-Methylpyridin-3-yl)-10-Oxo-10,11-Dihydro-5H -Isochromene[3,4-g]Quinazolin-8-yl)Piperazin-2-yl)Acetonitrile], the IC50 in the assay on H358 cells was determined as 349 nM; in the assay on MIA PaCa-2 cells, 546 nM.

`C=CC(=O)N1CCN(c2nc(=O)n(-c3c(C(C)C)ncc4c3CCC4)c3c4c(c(Cl)cc23)-c2c(ccc(F)c2F)CO4)[C@@H](C)C1` [Example 27]: the figures for the IC50 with H358 cells and in the assay with MIA PaCa-2 cells were 110 nM and 66 nM, respectively.

Regarding `C=CC(=O)N1CCN(c2nc(=O)n(-c3c(C)ccnc3C(C)C)c3c4c(c(Cl)cc23)-c2c(F)ccc(O)c2CO4)[C@@H](C)C1` [Example 28], the IC50 with H358 cells came out at 95 nM; with MIA PaCa-2 cells, 85 nM.

Turning to `C=CC(=O)N1CCN(c2nc(=O)n(-c3c(C)ccnc3C(C)C)c3c4c(c(Cl)cc23)-c2c(F)ccc(F)c2CO4)[C@@H](C)C1` [Example 29], the IC50 with H358 cells and in the assay with MIA PaCa-2 cells was below 50 nM each time.

Consider `C=CC(=O)N1CCN(c2nc(=O)n(-c3c(C)ccnc3C(C)C)c3c4c(c(Cl)cc23)-c2c(ccc(F)c2F)CCO4)[C@@H](C)C1` [Example 30, 10-((S)-4-Acryloyl-2-Methylpiperazin-1-yl)-8-Chloro-6,7-Difluoro-13-(2-Isopropyl-4-Methylpyridin-3-yl)-2,3-Dihydrobenzo[4,5] Oxa[3,2-h]Quinazolin-12(13H)-One], for which the IC50 with H358 cells and in the assay with MIA PaCa-2 cells was below 50 nM each time.

As for `C=CC(=O)N1CCN(c2nc(=O)n(-c3c(CC)cncc3CC)c3c4c(c(Cl)cc23)-c2c(F)cccc2CCO4)[C@@H](C)C1` [Example 31, 10-((S)-4-Actyloyl-2-Methylpiperazin-1-yl)-8-Chloro-13-(3,5-Diethylpyridin-4-yl)-7-Fluoro-2,3-Dihydrobenzo[4,5]Oxa[3,2-h]Quinazolin-12(13H)-One], the IC50 in the assay on H358 cells and with MIA PaCa-2 cells was below 50 nM each time.

Take `C=CC(=O)N1CCN(c2nc(=O)n(-c3c(C4CC4)ncnc3C3CC3)c3c4c(c(Cl)cc23)-c2c(F)cccc2CCO4)[C@@H](C)C1` [Example 32, 10-((S)-4-Acryloyl-2-Methylpiperazin-1-yl)-8-Chloro-13-(4,6-Dicyclopropylpyrimidine-5-Base)-7 -Fluoro-2,3-Dihydrobenzo[4,5] Oxa[3,2-h]Quinazolin-12(13H)-One]: the IC50 in the assay on H358 cells and in the assay with MIA PaCa-2 cells was below 50 nM in each case.

Take `C=CC(=O)N1CCN(c2nc(=O)n(-c3c(C)ccnc3C(C)C)c3c4c(c(Cl)cc23)-c2c(F)cccc2CO4)C2CC21` (centres unmarked) [Example 33, 1-(5-Acryloyl-2,5-Diazabicyclo [4.1.0] Heptan-2-yl)-11-Chloro-10-Fluoro-4-(2-Isopropyl-4-Methylpyridin-3-yl)-4H-Isochromeno[4,3-h]Quinazolin-3(6H)-One]: the IC50 with H358 cells and in the assay with MIA PaCa-2 cells was below 50 nM each time.

With `C=C(F)C(=O)N1CCN(c2nc(=O)n(-c3c(C)ccnc3C(C)C)c3c4c(c(Cl)cc23)-c2c(ccc(F)c2F)CO4)[C@@H](C)C1` [Example 34, (S)-11-Chloro-9,10-Difluoro-1-(4-(2-Fluoroacryloyl)-2-Methylpiperazin-1-yl)-4-(2-Isopropyl-4-Methylpyridin-3-yl)-4H-Isochromo[4,3-h] Quinazolin-3(6H)-One], the values for the IC50 with H358 cells and in the assay on MIA PaCa-2 cells were 780 nM and 908 nM, respectively.

`[2H]C1([2H])Oc2c(c(Cl)cc3c(N4CCN(C(=O)C=C)C[C@@H]4C)nc(=O)n(-c4c(C)ccnc4C(C)C)c23)-c2c1ccc(F)c2F` [Example 35]: the IC50 in the assay with H358 cells and in the assay with MIA PaCa-2 cells was below 50 nM in each case.

`C=CC(=O)N1CCN(c2nc(=O)n(-c3c(C)ccnc3C(C)C)c3nc4c(cc23)OCc2ccccc2-4)[C@@H](C)C1` [Example 36, (S)-8-(4-Acryloyl-2-Methylpiperazin-1-yl)-11-(2-Isopropyl-4-Methylpyridin-3-yl) -5H-Isochromene[3’,4′:5,6]Pyrido[2,3-d]Pyrimidin-10(11H)-One]: the IC50 worked out at 889 nM with H358 cells and 442 nM with MIA PaCa-2 cells.

With `C=CC(=O)N1CCN(c2nc(=O)n(-c3c(C)ccnc3C(C)C)c3nc4c(cc23)OCc2cccc(O)c2-4)[C@@H](C)C1` [Example 37, (S)-8-(4-Acryloyl-2-Methylpiperazin-1-yl)-1-Hydroxy-11-(2-Isopropyl-4-Methylpyridine-3-yl)-5 H-Isochromene [3’,4’:5,6] Pyrido [2,3-d] Pyrimidin 10(11H)-One], the figures for the IC50 in the assay on H358 cells and with MIA PaCa-2 cells were 2490 nM and 1340 nM, respectively.
